According to patent US4628064A, “Epinine and the therapeutic use thereof” (SIMES, Societa Italiana Medicinali e Sintetici S.p.A., priority 1983, dated 1986):

Key:
[1] = tested on: electrically stimulated median arteria of rabbit ear; test: Inhibition of contraction induced by electrical stimulation, median arteria of rabbit ear; conditions: for IC50: Oryctolagus cuniculus, concentrations between 0.01 and 10 μM, read-out: ED50 in inhibiting the contraction induced by electrical stimulation
anesthetized dog = test: Hemodynamic parameters in the anesthetized dog after intravenous infusion; assay type: in vivo; conditions: for effect on the heart rate: doses of 1, 2.5 and 5 μg/kg/min, in words; for Average arterial pressure / Heart rate / Renal art. flow / Renal resistances: measured 5 minutes after infusion, average ± SE
From the text: Dopamine and epinine have been compared after intravenous infusion at different doses in the anesthetized dog.

[2] = less potent than adrenaline; cited from earlier work

SMILES	IC50 [1] [nM]	effect on the heart rate (anesthetized dog)	Average arterial pressure (anesthetized dog; infusion 1.00 μg/kg/min) [mmHg]	Heart rate (anesthetized dog; infusion 1.00 μg/kg/min)	Renal art. flow (anesthetized dog; infusion 1.00 μg/kg/min) [mL/min]	Renal resistances (anesthetized dog; infusion 1.00 μg/kg/min) [mmHg/ml/min]	Average arterial pressure (anesthetized dog; infusion 2.50 μg/kg/min) [mmHg]	Heart rate (anesthetized dog; infusion 2.50 μg/kg/min)	Renal art. flow (anesthetized dog; infusion 2.50 μg/kg/min) [mL/min]	Renal resistances (anesthetized dog; infusion 2.50 μg/kg/min) [mmHg/ml/min]	Average arterial pressure (anesthetized dog; infusion 5.00 μg/kg/min) [mmHg]	Heart rate (anesthetized dog; infusion 5.00 μg/kg/min)	Renal art. flow (anesthetized dog; infusion 5.00 μg/kg/min) [mL/min]	Renal resistances (anesthetized dog; infusion 5.00 μg/kg/min) [mmHg/ml/min]	activity relative to dopamine (presynaptic DA2 receptors) ([1]; higher than that of dopamine) [times]	pressor potency relative to adrenaline [2]	Average arterial pressure (anesthetized dog; infusion 0.50 μg/kg/min) [mmHg]	Heart rate (anesthetized dog; infusion 0.50 μg/kg/min)	Renal art. flow (anesthetized dog; infusion 0.50 μg/kg/min) [mL/min]	Renal resistances (anesthetized dog; infusion 0.50 μg/kg/min) [mmHg/ml/min]
NCCc1ccc(O)c(O)c1 [dopamine, reference compound]	2390	slightly increased	106 ± 7	144 ± 10	127 ± 20.8	1.120 ± 0.149	105 ± 6	146 ± 8	132 ± 21.0	1.053 ± 0.146	109 ± 6	151 ± 8	122.9 ± 19.8	1.136 ± 0.261						
CNCCc1ccc(O)c(O)c1 [epinine, N-methyl-3,4-dihydroxyphenethylamine]	77	moderate but significant reduction	136 ± 8	161 ± 11	157.5 ± 28.1	0.971 ± 0.185	135 ± 7	156 ± 12	159.8 ± 29.3	0.954 ± 0.183	139 ± 6	149 ± 11	164.3 ± 29.7	0.965 ± 0.181	30	about ten	136 ± 9	164 ± 10	153.5 ± 18.5	0.990 ± 0.145
